In this experiment the target is BTK (Homo sapiens (Human), UniProt Q06187). Put plainly: Btk in vitro inhibitory activity (one of Method A TR-FRET, Method B electrophoretic mobility shift, Method C radiometric filter binding). It is filed as biochemical. (In general: A gel shift assay detects complexes by their altered migration in electrophoresis.)
[1] abbreviates: determined using one of the methods of Example 355a, 355b and 355c, read-out: BTK IC50.

Where two headings read alike, the source gives them in different places.

Chain of BTK (Q06187 whole entry): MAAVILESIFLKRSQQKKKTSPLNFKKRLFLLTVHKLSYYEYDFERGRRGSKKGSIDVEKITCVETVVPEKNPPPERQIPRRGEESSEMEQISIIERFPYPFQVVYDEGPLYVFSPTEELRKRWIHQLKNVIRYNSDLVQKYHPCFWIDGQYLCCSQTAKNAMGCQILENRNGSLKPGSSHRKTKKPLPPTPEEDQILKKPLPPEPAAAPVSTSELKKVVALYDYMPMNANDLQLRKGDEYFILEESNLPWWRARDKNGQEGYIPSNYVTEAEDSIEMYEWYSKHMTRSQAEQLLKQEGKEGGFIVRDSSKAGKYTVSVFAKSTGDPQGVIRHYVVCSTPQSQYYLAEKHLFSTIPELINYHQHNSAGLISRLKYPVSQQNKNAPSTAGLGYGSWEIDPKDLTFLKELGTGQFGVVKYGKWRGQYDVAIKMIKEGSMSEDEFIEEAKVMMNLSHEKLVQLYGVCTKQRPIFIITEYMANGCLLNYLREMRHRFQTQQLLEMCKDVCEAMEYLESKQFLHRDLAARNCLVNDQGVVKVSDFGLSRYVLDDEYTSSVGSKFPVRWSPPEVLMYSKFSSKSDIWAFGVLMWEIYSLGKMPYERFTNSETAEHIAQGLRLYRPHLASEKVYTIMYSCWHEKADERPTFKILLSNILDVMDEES

In the case of `NC(=O)c1ncc(N2CCC[C@@H](NC(=O)C3CC3)C2)nc1Nc1ccc(C2CCN(C3CCCC3)CC2)cc1` [Example 299, (R)-3-(4-(1-cyclopentylpiperidin-4-yl)phenylamino)-5-(3-(cyclopropanecarboxamido)piperidin-1-yl)pyrazine-2-carboxamide], the IC50 (usually the midpoint of a concentration-inhibition curve) reads like this: under setting [1], below 10 nM; (read-out: Btk (IC50)) below 10 nM.

`CN1CCC(c2ccc(Nc3nc(N4CCC[C@@H](NC(=O)N(C)C)C4)cnc3C(N)=O)cc2)CC1` [Example 165]: under setting [1], the IC50 is below 10 nM.

On to `NC(=O)c1nnc(N2CCC[C@@H](NC(=O)N3CCOCC3)C2)nc1Nc1ccc(-c2ncco2)cc1` [Example 59, (R)—N-(1-(6-carbamoyl-5-(4-(oxazol-2-yl)phenylamino)-1,2,4-triazin-3-yl)piperidin-3-yl)morpholine-4-carboxamide], for which, under setting [1], the IC50 fell in the range of 10 to 100 nM.

As for `C[C@@H]1[C@H](NC(=O)N(C)C)CCCN1c1cnc(C(N)=O)c(Nc2ccc(C3(C#N)CC3)cc2)n1` [Example 240, 3-(4-(1-cyanocyclopropyl)phenylamino)-5-((2R,3R)-3-(3,3-dimethylureido)-2-methylpiperidin-1-yl)pyrazine-2-carboxamide], the IC50 under setting [1] was below 10 nM and the IC50 (read-out: Btk (IC50)) is below 10 nM.

As for `COc1ccc(C(=O)N[C@@H]2CCCN(c3cnc(C(N)=O)c(Nc4ccc(C5CCN(C(=O)N(C)C)CC5)cc4)n3)C2)cc1` [Example 142, (R)-3-(4-(1-(dimethylcarbamoyl)piperidin-4-yl)phenylamino)-5-(3-(4-methoxybenzamido)piperidin-1-yl)pyrazine-2-carboxamide], the IC50 fell in the range of 10 to 100 nM (Btk (IC50)) and 10 to 100 nM under setting [1].

Turning to `NC(=O)c1nnc(N[C@@H]2CCCN(C(=O)C3CC3)C2)nc1Nc1ccc(C(=O)N2CCOCC2)cc1` [Example 64, (R)-3-(1-(cyclopropanecarbonyl)piperidin-3-ylamino)-5-(4-(morpholine-4-carbonyl)phenylamino)-1,2,4-triazine-6-carboxamide], the IC50 under setting [1] was below 10 nM.

On to `CC(C)(C)c1ccc(C(=O)N2CCC[C@@H](Nc3nnc(C(N)=O)c(Nc4ccc(C(=O)N5CCOCC5)cc4)n3)C2)cc1` [Example 62, (R)-3-(1-(4-tert-butylbenzoyl)piperidin-3-ylamino)-5-(4-(morpholine-4-carbonyl)phenylamino)-1,2,4-triazine-6-carboxamide], for which the IC50 under setting [1] fell in the range of 10 to 100 nM.

Take `CN1CCN([C@@H]2CCCN(c3cnc(C(N)=O)c(Nc4ccc(C5(C)CCN(C6CC6)CC5)cc4)n3)C2)C1=O` [Example 263, (R)-3-(4-(1-cyclopropyl-4-methylpiperidin-4-yl)phenylamino)-5-(3-(3-methyl-2-oxoimidazolidin-1-yl)piperidin-1-yl)pyrazine-2-carboxamide]: the IC50 (read-out: Btk (IC50)) was below 10 nM.

With `NC(=O)c1ncc(N2CCC[C@@H](NC(=O)c3ccc4ccccc4c3)C2)nc1Nc1ccc(C2CCN(C3CC3)CC2)cc1` [Example 317, (R)-5-(3-(2-naphthamido)piperidin-1-yl)-3-(4-(1-cyclopropylpiperidin-4-yl)phenylamino)pyrazine-2-carboxamide], the IC50 under setting [1] was in the range of 10 to 100 nM.

For `NC(=O)c1ncc(N2CCC[C@@H](N3Cc4ccccc4C3=O)C2)nc1Nc1ccc(C2CCN(C3CCCC3)CC2)cc1` [Example 307, (R)-3-(4-(1-cyclopentylpiperidin-4-yl)phenylamino)-5-(3-(1-oxoisoindolin-2-yl)piperidin-1-yl)pyrazine-2-carboxamide], the IC50 is, setting by setting: under setting [1], below 10 nM; (read-out: Btk (IC50)) below 10 nM.

Turning to `N#Cc1ccc(C(=O)N[C@@H]2CCCN(c3nnc(C(N)=O)c(Nc4ccc(C(=O)N5CCOCC5)cc4)n3)C2)cc1` [Example 7, (R)-3-(3-(4-cyanobenzamido)piperidin-1-yl)-5-(4-(morpholine-4-carbonyl)phenylamino)-1,2,4-triazine-6-carboxamide], under setting [1], the IC50 was in the range of 10 to 100 nM.

For `COc1ccc(C(=O)N[C@@H]2CCCN(c3cnc(C(N)=O)c(Nc4ccc(OCC[N+](C)(C)[O-])cc4)n3)C2)cc1` [Example 116, (R)-2-(4-(3-carbamoyl-6-(3-(4-methoxybenzamido)piperidin-1-yl)pyrazin-2-ylamino)phenoxy)-N,N-dimethylethanamine oxide], the 50% inhibitory concentration (IC50) under setting [1] was 10 to 100 nM.

`NC(=O)c1nnc(N2CCC[C@@H](NC(=O)N3CCCCC3)C2)nc1Nc1cnc2ccccc2c1` [Example 108, (R)-3-(3-(piperidine-1-carboxamido)piperidin-1-yl)-5-(quinolin-3-ylamino)-1,2,4-triazine-6-carboxamide]: the IC50 under setting [1] fell in the range of 100 to 1000 nM.

As for `CN(C(=O)N[C@@H]1CCCN(c2cnc(C(N)=O)c(Nc3ccc(C4(C#N)CC4)cc3)n2)C1)c1cc(Cl)cc(C(F)(F)F)c1` [Example 323, (R)-5-(3-(3-(3-chloro-5-(trifluoromethyl)phenyl)-3-methylureido)piperidin-1-yl)-3-(4-(1-cyanocyclopropyl)phenylamino)pyrazine-2-carboxamide], the IC50 reads like this: under setting [1], 100 to 1000 nM; (read-out: Btk (IC50)) 100 to 1000 nM.

As to `CCS(=O)(=O)N[C@@H]1CCCN(c2cnc(C(N)=O)c(Nc3ccc(C4CCN(C5CCCC5)CC4)cc3)n2)C1` [Example 301, (R)-3-(4-(1-cyclopentylpiperidin-4-yl)phenylamino)-5-(3-(ethylsulfonamido)piperidin-1-yl)pyrazine-2-carboxamide], the half-maximal inhibitory concentration (IC50) under setting [1] fell in the range of 10 to 100 nM.

`CN(C/C=C/C(=O)N1CC[C@@H](Nc2nnc(C(N)=O)c(Nc3ccc(C(=O)N4CCOCC4)cc3)n2)C1)C1CC1` [Example 71, (R,E)-3-(1-(4-(cyclopropyl(methyl)amino)but-2-enoyl)pyrrolidin-3-ylamino)-5-(4-(morpholine-4-carbonyl)phenylamino)-1,2,4-triazine-6-carboxamide]: under setting [1], the IC50 lay within 10 to 100 nM.

For `CN(C)C(=O)N(C)[C@@H]1CCCN(c2cnc(C(N)=O)c(Nc3ccc(C4CCN(S(C)(=O)=O)CC4)cc3)n2)C1` [Example 228, (R)-3-(4-(1-(methylsulfonyl)piperidin-4-yl)phenylamino)-5-(3-(1,3,3-trimethylureido)piperidin-1-yl)pyrazine-2-carboxamide], the IC50 lay within 10 to 100 nM. For the same compound, the IC50 under setting [1] lay within 10 to 100 nM.

`CN(C)C(=O)N[C@@H]1CCCN(c2cnc(C(N)=O)c(Nc3ccc(N4CCN(C5CCCC5)CC4)cc3)n2)C1` [Example 215, (R)-3-(4-(4-cyclopentylpiperazin-1-yl)phenylamino)-5-(3-(3,3-dimethylureido)piperidin-1-yl)pyrazine-2-carboxamide]: the IC50 was below 10 nM under setting [1] and below 10 nM (read-out: Btk (IC50)).

Consider `CN(C)C(=O)N[C@@H]1CCCN(c2cnc(C(N)=O)c(Nc3ccc(N4CCN(C5CC5)CC4)cc3)n2)C1` [Example 214, (R)-3-(4-(4-cyclopropylpiperazin-1-yl)phenylamino)-5-(3-(3,3-dimethylureido)piperidin-1-yl)pyrazine-2-carboxamide], for which the IC50 runs as follows: under setting [1], below 10 nM; (read-out: Btk (IC50)) below 10 nM.

In the case of `CC(C)Oc1ccc(Nc2nc(N3CCC[C@@H](NC(=O)N(C)C)C3)cnc2C(N)=O)cc1` [Example 188, (R)-5-(3-(3,3-dimethylureido)piperidin-1-yl)-3-(4-isopropoxyphenylamino)pyrazine-2-carboxamide], the IC50 runs as follows: under setting [1], below 10 nM; (read-out: Btk (IC50)) below 10 nM.

As to `COc1ccc(C(=O)N[C@@H]2CCCN(c3cnc(C(N)=O)c(Nc4cc(C)ns4)n3)C2)cc1` [Example 119, (R)-5-(3-(4-methoxybenzamido)piperidin-1-yl)-3-(3-methylisothiazol-5-ylamino)pyrazine-2-carboxamide], the IC50 under setting [1] is 10 to 100 nM.

Take `NC(=O)c1nnc(N[C@@H]2CCNC2)nc1Nc1ccc(C(=O)N2CCOCC2)cc1` [Example 69, (R)-5-(4-(morpholine-4-carbonyl)phenylamino)-3-(pyrrolidin-3-ylamino)-1,2,4-triazine-6-carboxamide]: the IC50 under setting [1] lay in the range of 10 to 100 nM.

`NC(=O)c1ncc(N2CCC[C@@H](NC=O)C2)nc1Nc1ccc(C2CCN(C3CCCC3)CC2)cc1` [Example 295, (R)-3-(4-(1-cyclopentylpiperidin-4-yl)phenylamino)-5-(3-formamidopiperidin-1-yl)pyrazine-2-carboxamide]: the IC50 was below 10 nM under setting [1] and below 10 nM (read-out: Btk (IC50)).

For the compound `CC(C)(C)c1ccc(NC(=O)N[C@@H]2CCCN(c3nnc(C(N)=O)c(Nc4ccc(C(=O)N5CCOCC5)cc4)n3)C2)cc1` [Example 79, (R)-3-(3-(3-(4-tert-butylphenyl)ureido)piperidin-1-yl)-5-(4-(morpholine-4-carbonyl)phenylamino)-1,2,4-triazine-6-carboxamide], the IC50 (Btk (IC50)) lay within 10 to 100 nM and the 50% inhibitory concentration (IC50) under setting [1] fell in the range of 10 to 100 nM.

Take `CN1CCN(c2ccc(Nc3nc(N4CCC[C@@H](NC(=O)c5ccc(C(C)(C)C)cc5)C4)cnc3C(N)=O)cc2)CC1` [Example 129, (R)-5-(3-(4-tert-butylbenzamido)piperidin-1-yl)-3-(4-(4-methylpiperazin-1-yl)phenylamino)pyrazine-2-carboxamide]: the IC50 was below 10 nM under setting [1] and below 10 nM (read-out: Btk (IC50)).

In the case of `CN(C)C(=O)N[C@@H]1CCCN(c2cnc(C(N)=O)c(Nc3ccc(Cl)cc3)n2)C1` [Example 181, (R)-3-(4-chlorophenylamino)-5-(3-(3,3-dimethylureido)piperidin-1-yl)pyrazine-2-carboxamide], the concentration for half-maximal inhibition (IC50) under setting [1] was 10 to 100 nM.

Regarding `NC(=O)c1ncc(N2CCC[C@@H](NC(=O)c3cncc(Cl)c3)C2)nc1Nc1ccc(C2CCN(C3CC3)CC2)cc1` [Example 313, (R)-5-(3-(5-chloronicotinamido)piperidin-1-yl)-3-(4-(1-cyclopropylpiperidin-4-yl)phenylamino)pyrazine-2-carboxamide], the IC50 reads like this: under setting [1], below 10 nM; (read-out: Btk (IC50)) below 10 nM.

Consider `NC(=O)c1ncc(N2CCC[C@@H](N3CCNC3=O)C2)nc1Nc1ccc(C2CCN(C3CCCC3)CC2)cc1` [Example 274, (R)-3-(4-(1-cyclopentylpiperidin-4-yl)phenylamino)-5-(3-(2-oxoimidazolidin-1-yl)piperidin-1-yl)pyrazine-2-carboxamide], for which the IC50 under setting [1] is below 10 nM and the IC50 (read-out: Btk (IC50)) is below 10 nM.

Source of the values: US9656988B2 (Pharmacyclics LLC, priority 2013, dated 2017).
